Experimental data from patent US8283479B2, “CXCR2 inhibitors” (Sanofi-Aventis Deutschland GmbH, priority 2004, dated 2012).

Target: T1, human CXCR2 (Homo sapiens, UniProt P25025)
T1 construct: expressed in transfected cells; host or cells: CHO-K1
T1 sequence (P25025 1-360): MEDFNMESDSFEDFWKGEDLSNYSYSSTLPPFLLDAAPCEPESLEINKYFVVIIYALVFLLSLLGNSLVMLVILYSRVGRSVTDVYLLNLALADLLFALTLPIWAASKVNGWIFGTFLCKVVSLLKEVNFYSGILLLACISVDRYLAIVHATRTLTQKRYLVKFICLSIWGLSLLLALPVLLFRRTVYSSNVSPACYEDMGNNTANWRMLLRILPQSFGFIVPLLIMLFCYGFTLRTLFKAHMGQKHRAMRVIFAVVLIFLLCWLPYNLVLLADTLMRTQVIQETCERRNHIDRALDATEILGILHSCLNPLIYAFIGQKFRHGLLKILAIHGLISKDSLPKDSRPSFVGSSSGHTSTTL
Experiment: CXCR2 inhibition: calcium fluorescence assay (FLIPR)
Format: cell-based
Conditions: CHO-K1 cells stably transfected with human CXCR2 and Gα16; Fluo-4; % inhibition of calcium response to chemokine (10-100 nM)
From the text: Determination of CXCR2 Inhibition: Calcium Fluorescence Assay (FLIPR)
The assay is based on the detection of intracellular calcium changes detected by the selective, calcium-chelating dye, Fluo-4 (Molecular Probes). A large fluorescence intensity increase is observed upon calcium association with Fluo-4. The dye is delivered to the cell interior using an acetoxymethylester form of Fluo-4, where the intracellular esterase activity results in the charged species being released and trapped within the cytoplasm of the cell. […] By co-expressing the CXCR2 receptor and the promiscuous Gα16 protein, activation of this chemokine receptor is directed into this phospholipase C cascade resulting in intracellular calcium mobilization.
The CHO—K1 cells stably transfected with human CXCR2 and the promiscuous Gα16 protein were maintained in a log phase of growth at 37° C. and 5% CO2 in the following media: Iscove's, 10% FBS, 1× Penicillin-Streptomycin, 400 μg/mL G418 and 350 μg/mL Zeocin. Approximately 24-48 hours prior to the assay, 20,000-30,000 cells/well were plated onto a 96-well black/clear bottomed assay plate (Becton Dickinson) with a well volume of 180 μl. For dye-loading the culture medium was carefully removed and replaced by 100 μl/well dye solution (4 μM Fluo-4 in 135 mM NaCl, 5 mM KCl, 1 mM magnesium sulphate, 5 mM glucose, 20 mM Hepes, 2.5 mM probenecid; pH 7.4). Cells were incubated for 1 h at 37° C., and then washed 3× with buffer. After washing 90 μl buffer/well were left. Increasing concentrations of compound was added in 45 μl buffer (4× concentrated) followed by 10 min incubation at 37° C. Then the chemokine (10-100 nM) was applied in 45 μl buffer (4× concentrated) and the measurement performed for 2 min. The IC50 value of a compound was determined by calculation of % inhibition of total calcium response to the chemokine.

Row | Structure (SMILES) | IC50
1 | CC(C)(NC(=O)c1ccc2ccccc2c1OCc1ccc2nonc2c1)C(=O)O [Example 5, 2-{[1-(Benzo[1,2,5]oxadiazol-5-ylmethoxy)-naphthalene-2-carbonyl]-amino}-2-methyl-propionic acid] | 3.21 µM
2 | O=C(NC1(C(=O)O)CCCC1)c1ccc2ccccc2c1OCc1ccc(C(F)(F)F)cc1 [Example 127, 1-{[1-(4-Trifluoromethyl-benzyloxy)-naphthalene-2-carbonyl]-amino}-cyclopentanecarboxylic acid] | 0.996 µM
3 | CCC(C)(NC(=O)c1ccc2ccccc2c1OCc1ccc(OC(F)(F)F)c(Cl)c1)C(=O)O (centres unmarked) [Example 105, 2-{[1-(3-Chloro-4-trifluoromethoxy-benzyloxy)-naphthalene-2-carbonyl]-amino}-2-methyl-butyric acid] | 1.62 µM
4 | CCC(C)(NC(=O)c1ccc2ccccc2c1OCc1cc2ccccc2s1)C(=O)O (centres unmarked) [Example 74, 2-{[1-(Benzo[b]thiophen-2-ylmethoxy)-naphthalene-2-carbonyl]-amino}-2-methyl-butyric acid] | 0.98 µM
5 | CC(NC(=O)c1ccc2ccccc2c1OCc1ccc(C(F)(F)F)cc1)C(=O)O (centres unmarked) [Example 110, 2-{[1-(4-Trifluoromethyl-benzyloxy)-naphthalene-2-carbonyl]-amino}-propionic acid] | 0.7 µM
6 | CC(C)(NC(=O)c1cc(Br)c2ccccc2c1OCc1ccc(OC(F)(F)F)cc1)C(=O)O [Example 42, 2-{[4-Bromo-1-(4-trifluoromethoxy-benzyloxy)-naphthalene-2-carbonyl]-amino}-2-methyl-propionic acid] | 0.972 µM
7 | CC(C)(NC(=O)c1sc2ccccc2c1OCc1ccc(C(F)(F)F)nc1)C(=O)O [Example 120, 2-Methyl-2-{[3-(6-trifluoromethyl-pyridin-3-ylmethoxy)-benzo[b]thiophene-2-carbonyl]-amino}-propionic acid] | 4.45 µM
8 | CC(C)C(C)(NC(=O)c1sc2ccccc2c1OCc1ccc(C(F)(F)F)cc1)C(=O)O (centres unmarked) [Example 131, 2,3-Dimethyl-2-{[3-(4-trifluoromethyl-benzyloxy)-benzo[b]thiophene-2-carbonyl]-amino}-butyric acid] | 0.2 µM
